According to article PMC8116058, “De novo macrocyclic peptides dissect energy coupling of a heterodimeric ABC transporter by multimode allosteric inhibition” (eLife, 2021):
Positions of bridges follow the written chain, without caps; N, C: chain ends. Non-standard residues stand in square brackets, D forms with d. Residues, ends and D or L forms follow the SMILES beside them. *: point of attachment. 5FAM = O=C1OC2(c3ccc(O)cc3Oc3cc(O)ccc32)c2ccc(C(=O)*)cc21; βAla = NCCC(=O)O

Experiments:
TmrAB = assay: ATP binding by scintillation proximity assay (SPA); set-up: species or system Thermus thermophilus; details: CP^B 1 µM; for Effect on ATP binding to TmrAB: SPA; for Signal, ATP binding: TmrAB 0.2 µM on SPA beads, ATP 3 µM traced with 3H-ATP, 30 min on ice, without CP 5.06; for Signal, Background: after release of TmrAB from beads with imidazole 200 mM
Excerpt: To elucidate the mechanistic basis for the inhibition of ATP hydrolysis and substrate transport, we investigated the effects of CPs on substrate binding. In the first approach, fluorescent CP^Fs were used as reporters in fluorescence polarization. […] In addition, we examined the impact of CP^Bs on ATP binding to TmrAB by scintillation proximity assays (SPA) (Figure 4C). […] Taken together, CPs are high-affinity allosteric inhibitors of TmrAB that leave ATP binding and substrate interaction largely unaffected, while impairing ATP hydrolysis and substrate translocation across the membrane.
Figure 4. […] (A) CP^Fs binding TmrAB is not affected by substrate peptide binding. […] For competition, C4^ATTO655 peptide (2 µM) or R9LQK peptide (200 µM) were added. (B) Binding of C4F peptide is not affected by CP^Bs. C4F peptides (50 nM) were mixed with TmrAB (4 µM), and fluorescence anisotropy was monitored as described in (A). For competition, C4^ATTO655 (10 µM) or CP^Bs (6 µM) were added. […] TmrAB (0.2 µM) were immobilized on SPA beads and incubated with ATP (3 μM, traced with ^3H-ATP) in the presence and absence of CP^Bs (1 µM each) for 30 min on ice. ATP binding was monitored by SPA. Background values were determined after releasing TmrAB complexes from the beads by adding imidazole (200 mM). The background signal in the absence of CP^Bs was set to 0 cpm. […] As this is an equilibrium experiment, this can be rationalized by the fact that CP13 stabilizes the ATP-bound OF conformer. Figure 4—source data 1. Source data for Figure 4.
DDM-solubilized TmrAB (0.2 µM) was incubated with ATP (2.8 μM), [2,5’,8-^3H(N)]-ATP (0.2 µM, ^3H-ATP, PerkinElmer), MgCl2 (3 mM), and CP^Bs (1 µM) for 30 min on ice. Copper-chelated SPA beads (PerkinElmer) were added to a final concentration of 5 mg/ml. Total binding was determined at 20°C in cpm mode (Wallac MicroBeta). Bound TmrAB complexes were eluted by adding 200 mM of imidazole, and background binding was determined. Data represent mean ± SD from three experiments.

[1] = system: wild-type TmrAB in liposomes; assay: Single-liposome flow cytometry transport assay; assay type: biochemical, Thermus thermophilus; details: for Peptides/liposome, time course / Mean fluorescence intensity * 10^3, time course / C4^ATTO655 peptides per liposome transported along a single IF-to-OF switch / Transported C4^ATTO655, Peptides/liposome: CP^F 1 µM; for Peptides/liposome, time course / Mean fluorescence intensity * 10^3, time course / Transported C4^ATTO655, Peptides/liposome: C4^ATTO655 1 µM; for Peptides/liposome, time course: corrected by ADP background; for Peptide transport in two successive IF-to-OF cycles: 5 min 45°C / 60 min 4°C, repeated; for C4^ATTO655 peptides per liposome transported along a single IF-to-OF switch / Transported C4^ATTO655, Peptides/liposome: 5 min 45°C; for C4^ATTO655 peptides per liposome transported along a single IF-to-OF switch: ~30 transport-competent TmrAB per liposome; for Transported C4^ATTO655, Peptides/liposome: TmrAB 0.4 µM, ATP 3 mM, ATP without CP 84.57, ADP 3.52; for Peptide transport rate compared to control without CP^Fs / Turnover of wild-type TmrAB over long-term incubation: period of 40 min at 45°C; for Peptides/liposome, two consecutive transport cycles: ADP background corrected
Description: To investigate whether an IF-to-OF transition and conformational arrest by CP13^F or CP14^F can still result in a productive substrate translocation, we followed peptide transport by wild-type TmrAB by single liposome-based flow cytometry (Figure 6A). […] CPs block multiple-turnover transport monitored by quantitative flow cytometry. (A) Single turnover by IF-to-OF switch monitored by single-liposome flow cytometry. […] Transport reactions were stopped by the addition of EDTA (10 mM). 100,000 proteoliposomes were analyzed by flow cytometry monitoring fluorescein and ATTO655 intensities. […] (C, D) Slowdown of multiple-turnover substrate transport. […] Transported peptides per liposomes were evaluated and corrected by ADP background levels as described in (B). Transport kinetics were fitted monoexponentially. […] (E) Two consecutive transport cycles. […] Transported peptides per liposome were evaluated as described in (B) and corrected by background levels in the presence of ADP. […] Figure 6-source data 1. Source data for Figure 6. Figure 6-figure supplement 1. Linear regression of quantitative flow cytometry analysis. (A) Gating strategy. Liposomes were selected according to side and forward scatter areas. Single liposomes were gated based on the height of forward scatter correlated to the area of forward scatter. […] Detergent was removed, and liposomes were extensively washed by centrifugation. […] Equal concentrations of fluorescein served as loading control (right). (C) Linear regression. […] Mean values ± SD (n = 3) are shown. Figure 6-figure supplement 1-source data 1. Source Data for Figure 6-figure supplement 1. [drawing 5] […] To confirm the conformational arrest of wild-type TmrAB by CP13^F and the slow turnover in the presence of CP14^F, we examined two successive cycles of conformational transitions by flow cytometry. […] Both steps were repeated to yield two consecutive cycles of conformational transitions. […] Taken together, the macrocyclic peptides CP13 and CP14 stabilize a pre-hydrolysis state, thus allowing a single-turnover translocation along the IF-to-OF switch. […] Transport reactions were stopped by adding EDTA (10 mM). […] For regression analysis, liposomes were loaded with increasing amounts of peptides to convert the fluorescence intensities into the number of peptides per liposome ([Stefan et al., 2020]). […] Equal amounts of carboxyfluorescein (Sigma-Aldrich) served as loading control. Detergent was removed by adding SM-2 Bio-beads (Bio-Rad) as detailed above. Liposomes were harvested for 30 min at 270,000 g and washed three times by centrifugation. Generally, 20,000-100,000 proteoliposomes were selected according to sideward and forward scatter areas. Single events were selected based on the height of forward scatter plotted against the area of forward scatter. […] Data represent mean ± SD from three experiments.

[2] = 3 min at 45°C, without CP 10.49
[3] = 5 min at 45°C, without CP 18.11
[4] = 10 min at 45°C, without CP 30.27
[5] = 20 min at 45°C, without CP 40.72
[6] = 40 min at 45°C, without CP 51.44
[7] = time 5 min (after first 5 min at 45°C)
[8] = time 65 min (after 60 min at 4°C)
[9] = time 70 min (after second 5 min at 45°C)
[10] = time 130 min (after second 60 min at 4°C)

| Structure (SMILES) | Effect on ATP binding to TmrAB (TmrAB) | Signal, ATP binding (TmrAB) [cpm*10^3] | Signal, Background (TmrAB) [cpm*10^3] | Peptides/liposome, time course ([1]; 1 min at 45°C) [Peptides/liposome] | Mean fluorescence intensity * 10^3, time course ([1]; 1 min at 45°C, without CP 2.29) | Peptides/liposome, time course ([1]; 3 min at 45°C) [Peptides/liposome] | Mean fluorescence intensity * 10^3, time course [1, 2] | Peptide transport in two successive IF-to-OF cycles [1] | Peptides/liposome, time course ([1]; 5 min at 45°C) [Peptides/liposome] | Mean fluorescence intensity * 10^3, time course [1, 3] | Peptides/liposome, time course ([1]; 10 min at 45°C) [Peptides/liposome] | Mean fluorescence intensity * 10^3, time course [1, 4] | Peptides/liposome, time course ([1]; 20 min at 45°C) [Peptides/liposome] | Mean fluorescence intensity * 10^3, time course [1, 5] | Peptides/liposome, time course ([1]; 40 min at 45°C) [Peptides/liposome] | Mean fluorescence intensity * 10^3, time course [1, 6] | C4^ATTO655 peptides per liposome transported along a single IF-to-OF switch [1] | Transported C4^ATTO655, Peptides/liposome [1] [Peptides/liposome] | Peptide transport rate compared to control without CP^Fs [1] | Turnover of wild-type TmrAB over long-term incubation [1] | other results |
| --- | --- | --- | --- | --- | --- | --- | --- | --- | --- | --- | --- | --- | --- | --- | --- | --- | --- | --- | --- | --- | --- |
| CC(C)[C@@H]1NC(=O)[C@H](Cc2ccccc2)NC(=O)[C@@H]2CCCN2C(=O)[C@H](CC(N)=O)NC(=O)[C@H](Cc2c[nH]c3ccccc23)NC(=O)[C@H](C(C)C)NC(=O)[C@H](Cc2ccc(O)cc2)NC(=O)[C@H](Cc2ccccc2)NC(=O)[C@@H](Cc2ccc(O)cc2)NC(=O)CSC[C@@H](C(=O)NCC(=O)N[C@@H](CO)C(=O)NCCC(=O)NCCC(=O)N[C@@H](CCCNC(=N)N)C(=O)N[C@@H](CCCCNC(=O)c2ccc3c(c2)C(=O)OC32c3ccc(O)cc3Oc3cc(O)ccc32)C(N)=O)NC(=O)[C@H](CCCCN)NC(=O)[C@H](Cc2ccccc2)NC1=O [CP14] ({CH2CO}-[dY]FYVWNPFVFKCGS[βAla][βAla]RK(5FAM)-NH2; thioether N-12; C-terminus assumed) | no effect on ATP binding | 5.10 | 0.08 | 0.03 | 0.00 * 10^3 | 6.21 | 0.43 * 10^3 | peptide transport was detected in both IF-to-OF switches | 14.91 | 1.02 * 10^3 | 24.30 | 1.67 * 10^3 | 38.29 | 2.63 * 10^3 | 48.57 | 3.34 * 10^3 | ~ 30 peptides per liposome | 38.81 | drastically reduced the peptide transport rate | slow turnover | Peptides/liposome, two consecutive transport cycles ([1]; time 0 min): 0.00 Peptides/liposome; Peptides/liposome, two consecutive transport cycles [1, 7]: 36.27 Peptides/liposome; Peptides/liposome, two consecutive transport cycles [1, 8]: 37.68 Peptides/liposome; Peptides/liposome, two consecutive transport cycles [1, 9]: 44.92 Peptides/liposome; Peptides/liposome, two consecutive transport cycles [1, 10]: 48.07 Peptides/liposome |
| CC[C@H](C)[C@@H]1NC(=O)[C@H](Cc2c[nH]c3ccccc23)NC(=O)[C@H](CC(N)=O)NC(=O)[C@H](C)NC(=O)[C@H](CO)NC(=O)[C@@H]2CCCN2C(=O)[C@H](CC(=O)O)NC(=O)[C@@H](Cc2ccc(O)cc2)NC(=O)CSC[C@@H](C(=O)NCC(=O)N[C@@H](CO)C(=O)NCCC(=O)NCCC(=O)N[C@@H](CCCNC(=N)N)C(=O)N[C@@H](CCCCNC(=O)c2ccc3c(c2)C(=O)OC32c3ccc(O)cc3Oc3cc(O)ccc32)C(N)=O)NC(=O)[C@H]([C@@H](C)O)NC(=O)[C@H](CC(C)C)NC(=O)[C@H](CC(C)C)NC(=O)[C@H](C(C)C)NC(=O)[C@H](CC(C)C)NC1=O [CP13] ({CH2CO}-[dY]DPSANWILVLLTCGS[βAla][βAla]RK(5FAM)-NH2; thioether N-14; C-terminus assumed) | value of bound ATP exceeds the control without CPs | 6.33 | 0.19 | -0.42 | -0.03 * 10^3 | 2.53 | 0.17 * 10^3 | peptide transport was exclusively observed along the first IF-to-OF switch | 3.33 | 0.23 * 10^3 | 5.08 | 0.35 * 10^3 | 4.95 | 0.34 * 10^3 | 5.22 | 0.36 * 10^3 | approx. 10 peptides per liposome | 13.69 | drastically reduced the peptide transport rate | a single turnover driving peptide transport was observed | Effect on ATP binding to TmrAB (TmrAB; listed as CP13^B): only minor effects on ATP binding; Peptides/liposome, two consecutive transport cycles ([1]; time 0 min): 0.00 Peptides/liposome; Peptides/liposome, two consecutive transport cycles [1, 7]: 9.32 Peptides/liposome; Peptides/liposome, two consecutive transport cycles [1, 8]: 10.24 Peptides/liposome; Peptides/liposome, two consecutive transport cycles [1, 9]: 10.66 Peptides/liposome; Peptides/liposome, two consecutive transport cycles [1, 10]: 11.66 Peptides/liposome; Period of conformational arrest of wild-type TmrAB ([1]; two consecutive cycles): 2 h |
